# Results published in patent US10858335B2 (Rigel Pharmaceuticals, Inc., priority 2014, dated 2020).
# Where a name gives a salt, the structure may show the parent alone.
# System: GDF8 signaling (p-SMAD-3 (Ser423/425))
# Test: AlphaScreen SureFire SMAD3 (p-Ser423/425) assay, GDF8-stimulated cells (GDF pSMAD)
# Type: cell-based
# Details: MPC11; GDF8-stimulated; p-SMAD3 AlphaScreen; read-out: GDF pSMAD (MPC11) (inhibition of GDF8 signaling)
row,IC50 [µM],SMILES
1,0.137,"Nc1ncnc2ccc(-c3cccnc3-c3ccc(F)c(Cl)c3)cc12 [compound 448, 6-(2-(3-Chloro-4-fluorophenyl)pyridin-3-yl)quinazolin-4-amine]"
2,0.0774,"Nc1ncnc2ccc(-c3cccnc3-c3cc(Cl)ccc3F)cc12 [compound 818, 6-(2-(5-Chloro-2-fluorophenyl)pyridin-3-yl)quinazolin-4-amine]"

# Same assay, conditions: Mus musculus, MPC-11, GDF8-stimulated pSMAD3, MPC11; tested as the salt form given; read-out: GDF pSMAD (MPC11) (μM), inhibition of GDF8 signaling
row,IC50 [µM],SMILES
1,0.371,Cc1ccc(Cl)cc1-c1ncccc1-c1ccc2ncsc2c1 [compound 1057]
2,0.486,"COc1cnc(-c2cc(Cl)ccc2F)c(-c2ccc3ncnc(N)c3c2)c1 [compound 993, 6-(2-(5-chloro-2-fluorophenyl)-5-methoxypyridin-3-yl)quinazolin-4-amine]"
3,0.735,"Nc1ncnc2ccc(-c3cccnc3-c3cc(C(F)F)ccc3Cl)cc12 [compound 1018, 6-(2-(2-chloro-5-(difluoromethyl)phenyl)pyridin-3-yl)quinazolin-4-amine]"

# Same assay, conditions: Mus musculus, MPC-11, MPC11; GDF8-stimulated; p-SMAD3 AlphaScreen; read-out: GDF pSMAD (MPC11) (inhibition of GDF8 signaling)
row,SMILES,IC50 [µM]
1,"Cc1ccc(Oc2ncnc3ccc(-c4cccnc4-c4ccc(F)c(Cl)c4)cc23)cn1 [compound 437, 6-(2-(3-Chloro-4-fluorophenyl)pyridin-3-yl)-4-((6-methylpyridin-3-yl)oxy)quinazoline]",0.739
2,"c1cc(-c2ncccc2-c2ccc3nccc(N4CCOCC4)c3c2)cc(C2CC2)c1 [compound 549, 4-(6-(2-(3-Cyclopropylphenyl)pyridin-3-yl)quinolin-4-yl)morpholine]",5.01
3,"Fc1ccc(Cl)cc1-c1ncccc1-c1ccc2ncnn2c1 [compound 747, 6-(2-(5-Chloro-2-fluorophenyl)pyridin-3-yl)-[1,2,4]triazolo[1,5-a]pyridine]",0.284
4,"N#Cc1cc(-c2ncccc2-c2cnc3[nH]ncc3c2)ccc1F [Compound 158, 5-(3-(1H-Pyrazolo[3,4-b]pyridin-5-yl)pyridin-2-yl)-2-fluorobenzonitrile]",1.86
5,"Nc1ncnc2ccc(-c3cccnc3-c3ccccc3Cl)cc12 [compound 497, 6-(2-(2-Chlorophenyl)pyridin-3-yl)quinazolin-4-amine]",9.22
6,"Cc1cccc(-c2nc(N)ccc2-c2ccc3[nH]ncc3c2)c1 [Compound 23, 5-(1H-Indazol-5-yl)-6-m-tolylpyridin-2-amine]",2.25
7,"NC(=O)c1cnc2ccc(-c3cccnc3-c3ccc(F)c(C4CC4)c3)cn12 [compound 224, 6-(2-(3-Cyclopropyl-4-fluorophenyl)pyridin-3-yl)imidazo[1,2-a]pyridine-3-carboxamide]",0.621
8,"Cc1cc(-c2ncccc2-c2ccc3ccnc(N)c3c2)ccc1F [compound 298, 7-(2-(4-Fluoro-3-methylphenyl)pyridin-3-yl)isoquinolin-1-amine]",0.999
9,"Cc1c(-c2cccnc2-c2cc(Cl)ccc2F)ccc2ncnn12 [compound 812, 6-(2-(5-Chloro-2-fluorophenyl)pyridin-3-yl)-5-methyl-[1,2,4]triazolo[1,5-a]pyridine]",2.14
10,"CC(=O)c1cnc2ccc(-c3cccnc3-c3ccc(F)c(C)c3)cn12 [compound 586, 1-(6-(2-(4-Fluoro-3-methylphenyl)pyridin-3-yl)imidazo[1,2-a]pyridin-3-yl)ethan-1-one]",0.617
11,"COc1cc(CNc2cnc(-c3ccc(F)c(C)c3)c(-c3ccc4ncsc4c3)c2)ccc1O [compound 351, 4-(((5-(Benzo[d]thiazol-6-yl)-6-(4-fluoro-3-methylphenyl)pyridin-3-yl)amino)methyl)-2-methoxyphenol]",0.215
12,"Cc1cc(-c2ncccc2-c2ccc3cnc(-c4cccc(N)c4)n3c2)ccc1F [compound 283, 3-(6-(2-(4-Fluoro-3-methylphenyl)pyridin-3-yl)imidazo[1,5-a]pyridin-3-yl)aniline]",17.7
13,"Cc1cccc(-c2ncccc2-c2ccc3ncc(C#N)n3c2)c1 [compound 558, 6-(2-(m-Tolyl)pyridin-3-yl)imidazo[1,2-a]pyridine-3-carbonitrile]",0.188
14,"Fc1ccc(-c2ncccc2-c2ccc3ncncc3c2)cc1Cl [compound 506, 6-(2-(3-Chloro-4-fluorophenyl)pyridin-3-yl)quinazoline]",1.83
15,"Fc1cc(-c2ncccc2-c2ccn3ncnc3c2)cc(F)c1F [compound 875, 7-(2-(3,4,5-Trifluorophenyl)pyridin-3-yl)-[1,2,4]triazolo[1,5-a]pyridine]",12.4
16,"Fc1cccc(-c2ncccc2-c2ccc3ncsc3c2)c1F [compound 662, 6-(2-(2,3-Difluorophenyl)pyridin-3-yl)benzo[d]thiazole]",9.64
17,"Fc1ccc(-c2ncccc2-c2ccc3ncsc3c2)cc1Cl [compound 686, 6-(2-(3-Chloro-4-fluorophenyl)pyridin-3-yl)benzo[d]thiazole]",0.205

# Results, then the molecule that gave them:
row,IC50 [µM],SMILES
1,4.83,"Cc1cc(-c2ncc(-c3cn[nH]c3)cc2-c2ccc3ncsc3c2)ccc1F [compound 345, 6-(2-(4-Fluoro-3-methylphenyl)-5-(1H-pyrazol-4-yl)pyridin-3-yl)benzo[d]thiazole]"
2,1.56,"COc1cc(-c2ncccc2-c2cnc3[nH]ncc3c2)ccc1F [Compound 157, 5-(2-(4-Fluoro-3-methoxyphenyl)pyridin-3-yl)-1H-pyrazolo[3,4-b]pyridine]"
3,2.48,"N#Cc1cnc2ccc(-c3cccnc3-c3cccc(C(F)(F)F)c3)cn12 [compound 560, 6-(2-(3-(Trifluoromethyl)phenyl)pyridin-3-yl)imidazo[1,2-a]pyridine-3-carbonitrile]"
4,1.28,"c1cc(-c2ncccc2-c2ccc3ncnc(N4CCOCC4)c3c2)cc(C2CC2)c1 [compound 387, 4-(6-(2-(3-Cyclopropylphenyl)pyridin-3-yl)quinazolin-4-yl)morpholine]"
5,2.64,"Cc1cccc(-c2ncc(NC(=O)NC(C)C)cc2-c2ccc3[nH]ncc3c2)c1 [compound 214, 1-(5-(1H-Indazol-5-yl)-6-(m-tolyl)pyridin-3-yl)-3-isopropylurea]"
6,8.86,"CCn1ncc2cc(-c3cccnc3-c3cccc(C)c3)ccc21 [Compound 185, 1-Ethyl-5-(2-m-tolylpyridin-3-yl)-1H-indazole]"
7,13.4,"Fc1ccc(-c2ncccc2-c2ccc3nccn3c2)cc1 [Compound 53, 6-(2-(4-Fluorophenyl)pyridin-3-yl)imidazo[1,2-a]pyridine]"
8,0.111,"c1cc(-c2ncccc2-c2ccc3ncccc3n2)cc(C2CC2)c1 [compound 537, 2-(2-(3-Cyclopropylphenyl)pyridin-3-yl)-1,5-naphthyridine]"
9,0.281,"Cc1cc(-c2ncccc2-c2ccc3ncc(C(=O)NCCCO)n3c2)ccc1F [compound 704, 6-(2-(4-Fluoro-3-methylphenyl)pyridin-3-yl)-N-(3-hydroxypropyl)imidazo[1,2-a]pyridine-3-carboxamide]"
10,0.137,"Cc1cc(-c2ncccc2-c2ccc3ncc(C)n3c2)ccc1F [compound 527, 6-(2-(4-Fluoro-3-methylphenyl)pyridin-3-yl)-3-methylimidazo[1,2-a]pyridine]"
11,0.106,"Cn1cnc2ccc(-c3cccnc3-c3cccc(C4CC4)c3)cc2c1=O [compound 342, 6-(2-(3-Cyclopropylphenyl)pyridin-3-yl)-3-methylquinazolin-4(3H)-one]"
12,0.339,"Cc1cc(CNc2cnc(-c3ccc(F)c(C)c3)c(-c3ccc4ncsc4c3)c2)ccc1O [compound 372, 4-(((5-(Benzo[d]thiazol-6-yl)-6-(4-fluoro-3-methylphenyl)pyridin-3-yl)amino)methyl)-2-methylphenol]"
13,9.22,"Cc1ccc(Nc2ncnc3ccc(-c4cccnc4-c4ccc(F)c(Cl)c4)cc23)cn1 [compound 491, 6-(2-(3-Chloro-4-fluorophenyl)pyridin-3-yl)-N-(6-methylpyridin-3-yl)quinazolin-4-amine]"
14,0.162,"N#Cc1cnc2ccc(-c3cccnc3-c3cccc(C4CC4)c3)cn12 [compound 559, 6-(2-(3-Cyclopropylphenyl)pyridin-3-yl)imidazo[1,2-a]pyridine-3-carbonitrile]"
15,1.84,"Fc1ccc(-c2ncccc2-c2ccc3ncsc3c2)cc1F [compound 661, 6-(2-(3,4-Difluorophenyl)pyridin-3-yl)benzo[d]thiazole]"
16,0.45,"Cc1ccc(F)c(-c2ncccc2-c2cnc3[nH]ncc3c2)c1 [Compound 153, 5-(2-(2-Fluoro-5-methylphenyl)pyridin-3-yl)-1H-pyrazolo[3,4-b]pyridine]"
17,1.16,"Cc1cccc(-c2ncccc2-c2ccn3cncc3c2)c1 [compound 595, 7-(2-(m-Tolyl)pyridin-3-yl)imidazo[1,5-a]pyridine]"
18,8.62,"CCNC(=O)Nc1cnc(-c2ccc(F)c(C)c2)c(-c2ccc3nccn3c2)c1 [compound 220, 1-Ethyl-3-(6-(4-fluoro-3-methylphenyl)-5-(imidazo[1,2-a]pyridin-6-yl)pyridin-3-yl)urea]"
19,0.138,"Cc1cc(-c2ncccc2-c2ccc3ncc(C(=O)NC4CCN(C(C)C)CC4)n3c2)ccc1F [compound 700, 6-(2-(4-Fluoro-3-methylphenyl)pyridin-3-yl)-N-(1-isopropylpiperidin-4-yl)imidazo[1,2-a]pyridine-3-carboxamide]"
20,9.52,"Cc1cc(-c2ncccc2-c2cc(C(=O)O)c3[nH]ncc3c2)ccc1F [compound 195, 5-(2-(4-Fluoro-3-methylphenyl)pyridin-3-yl)-1H-indazole-7-carboxylic acid]"
21,0.224,"COc1cccc(-c2ncccc2-c2cnc3[nH]ncc3c2)c1 [Compound 155, 5-(2-(3-Methoxyphenyl)pyridin-3-yl)-1H-pyrazolo[3,4-b]pyridine]"
22,2.13,"Cc1cc(-c2ncccc2-c2ccc3ncc(C(=O)OC[C@@H](N)Cc4c[nH]c5ccccc45)n3c2)ccc1F [compound 615, (S)-2-Amino-3-(1H-indol-3-yl)propyl 6-(2-(4-fluoro-3-methylphenyl)pyridin-3-yl)imidazo[1,2-a]pyridine-3-carboxylate formic acid salt]"
